Test results reported in US9132097B2, “Nanoparticles stabilized with nitrophenylboronic acid compositions” (California Institute of Technology, priority 2013, dated 2015).
Like-named read-outs stand apart in the source and are kept apart here.

Key:
[1] = test system: BT-474 xenograft tumors
Method: Treatments began on day 1. […] All treatments were freshly prepared and given via intravenous tail vein injection. Injections were standardized at 150 μl per 20 g body weight of mice. […] Tumor sizes were recorded three times a week using caliper measurements (length×width2/2) and health of the animals was continuously monitored. Animals were euthanized when tumor volumes exceeded 1000 mm^3. Six weeks after beginning of the treatment, animals were euthanized by CO2 asphyxiation.

[2] = Plasma pharmacokinetics of free CPT in mice (comparison); format: in vivo; conditions: after 8 h, CPT alone at 10 mg/kg, CD2F1 mice
Method: Free CPT injected at 10 mg/kg into CD2F1 mice is shown as comparison. […] (B) Plasma concentration of unconjugated CPT as a function of time.

[3] = CPT 8 mg/kg i.v. once per week for 3 weeks, Nbegin 8
[4] = Irinotecan 80 mg/kg i.v. once per week for 3 weeks, Nbegin 8

Row | SMILES | Tumor inhibition compared to control group ([1]; CPT 8 mg/kg i.v. once per week for 3 weeks) | NNTRD (number of non-treatment related death) [1, 3] | NTRD (number of treatment related death) [1, 3] | Nend (number of animals surviving to end of study) [1, 3] | Injected dose remaining in circulation [2] [%] | Tumor inhibition compared to control group ([1]; Irinotecan 80 mg/kg i.v. once per week for 3 weeks) | NNTRD (number of non-treatment related death) [1, 4] | NTRD (number of treatment related death) [1, 4] | Nend (number of animals surviving to end of study) [1, 4] | Neuthan (number of animals euthanized due to exceeding tumor size limit of 1000 mm^3) [1, 4] | Nreg to zero (number of animals with tumors regressed to zero at the end of study) [1, 4]
1 | CC[C@@]1(O)C(=O)OCc2c1cc1n(c2=O)Cc2cc3ccccc3nc2-1 [CPT, Camptothecin] | no tumor inhibition | 0 | 4 | 8/0 | 0.01 |  |  |  |  |  | 
2 | CCc1c2c(nc3ccc(OC(=O)N4CCC(N5CCCCC5)CC4)cc13)-c1cc3c(c(=O)n1C2)COC(=O)[C@]3(O)CC [Irinotecan] |  |  |  |  |  | non-significant tumor inhibition | 0 | 1 | 8/7 | 0 | 0
